In the assay the test system is NRF2. As to the kind of experiment: qPCR analysis of NRF2-regulated genes. Type of assay: cell-based, human. The conditions noted are these: for Potential NRF2 Activation (>=2 target genes induced, by >=1.5-fold): Assay 13(p); for fold induction at 10 µM: Homo sapiens. The method in brief:
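WI-38 cells treated with compound at 10 μM for 24 hrs, then processed by Cells-to-Ct for RNA isolation, RT and qPCR of NRF2-regulated genes (HMOX1, NQO1, GCLC, GSTM1). Expression normalized to B2M, PPIA and GAPDH; siRNA knockdown of FOXO3 or NRF2 (10 nM) preceded treatment in some runs.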

The mark [1] stands for this setting: 24 h, Assay 12(o), at 10 uM, qPCR, read-out: Induction of NRF2-regulated genes: HMOX1 normalized fold-change.
Where [2] appears, read: 24 h, Assay 12(o), at 10 uM, qPCR, read-out: Induction of NRF2-regulated genes: NQO1 normalized fold-change.
Setting [3] is: rounded fold change, WI-38 cells, 10 μM, 24 hrs (RP11 for Gr-1D, RP29 for Gr-4D), read-out: Summary of effects on NRF2-regulated genes: HMOX1.
The mark [4] stands for this setting: rounded fold change, WI-38 cells, 10 μM, 24 hrs (RP29 for Gr-4D), read-out: Summary of effects on NRF2-regulated genes: NQO1.
[5] abbreviates: 10 μM, 24 hrs, WI-38, read-out: Expression of at least two NRF2 target genes.
Setting [6] is: 10 μM, 24 hrs, WI-38 cells, qPCR, normalized to B2M, n = 4, read-out: HMOX1 expression, normalized fold change (NRF2-regulated gene).
Setting [7] is: 10 μM, 24 hrs, WI-38 cells, qPCR, normalized to B2M, n = 4, read-out: NQO1 expression, normalized fold change (NRF2-regulated gene).
Setting [8] is: WI-38 cells, 10 μM, 24 hrs, n=4, qPCR normalized by B2M, read-out: GCLC Normalized fold change.
Where [9] appears, read: WI-38 cells, 10 μM, 24 hrs, n=4, qPCR normalized by B2M, read-out: GSTM1 Normalized fold change.
Where [10] appears, read: WI-38 cells, 10 μM, 24 hrs, n=4, qPCR normalized by B2M, read-out: HMOX1 Normalized fold change.
Where [11] appears, read: WI-38 cells, 10 μM, 24 hrs, n=4, qPCR normalized by B2M, read-out: NQO1 Normalized fold change.
Where [12] appears, read: 24 h, Assay 12(o), at 10 uM, qPCR, read-out: Induction of NRF2-regulated genes: GCLC normalized fold-change.
The mark [13] stands for this setting: 24 h, Assay 12(o), at 10 uM, qPCR, read-out: Induction of NRF2-regulated genes: GSTM1 normalized fold-change.
Where [14] appears, read: rounded fold change, WI-38 cells, 10 μM, 24 hrs (RP29 for Gr-4D), read-out: Summary of effects on NRF2-regulated genes: GSTM1.
The mark [15] stands for this setting: rounded fold change, WI-38 cells, 10 μM, 24 hrs, read-out: Summary of effects on NRF2-regulated genes: GCLC.
Setting [16] is: 10 μM, 24 hrs, WI-38 cells, qPCR, normalized to B2M, n = 4, read-out: GCLC expression, normalized fold change (NRF2-regulated gene).
The mark [17] stands for this setting: 10 μM, 24 hrs, WI-38 cells, qPCR, normalized to B2M, n = 4, read-out: GSTM1 expression, normalized fold change (NRF2-regulated gene).

Results on ten compounds are retold here after patent US11413278B2, “Compounds and methods for promoting stress resistance” (priority 2015, dated 2022).

The structures appear in SMILES notation. Read-outs that look alike come from different tables or passages of the source.

In the case of `COc1ccc(C(=O)/C=C/c2ccccc2Br)c(OC)c1` [Gr-4B], the “Potential NRF2 Activation (>=2 target genes induced, by >=1.5-fold)” value is “YES”. Besides, the “F = Potential NRF2 Activation” value (2-point score) is recorded as 2. Further, the fold induction at 10 µM under setting [1] came to 4.51. Moreover, the fold induction at 10 µM under setting [2] was 2.36. Besides, the fold induction at 10 µM under setting [3] is 4.51. The fold induction at 10 µM under setting [4] was 2.36. In addition, the fold induction at 10 µM under setting [5] is above 1.5. Also, the fold induction at 10 µM under setting [6] came to 4.51. For the same compound, the fold induction at 10 µM under setting [7] was 2.36. In addition, the fold induction at 10 µM under setting [8] came to 1.15. Moreover, the fold induction at 10 µM under setting [9] came to 1.15. Besides, the fold induction at 10 µM under setting [10] was found to be 4.51. Moreover, the fold induction at 10 µM under setting [11] is 2.36. Further, the “F = Potential NRF2 Activation” value (summary score) amounted to 2.
As for `COc1ccc(C(=O)/C=C/c2cccc(Cl)c2)c(OC)c1` [Gr-4C], the “Potential NRF2 Activation (>=2 target genes induced, by >=1.5-fold)” value is listed as “YES”. In addition, where the note is “2-point score”, the “F = Potential NRF2 Activation” value is recorded as 2. The fold induction at 10 µM under setting [12] was 2.51. Besides, the fold induction at 10 µM under setting [13] amounted to 1.63. Further, the fold induction at 10 µM under setting [1] was found to be 89.5. Under setting [2], the fold induction at 10 µM is 5. Moreover, the fold induction at 10 µM under setting [3] was determined as 89.5. In addition, the fold induction at 10 µM under setting [14] was determined as 1.63. The fold induction at 10 µM under setting [4] was found to be 5. For the same compound, the fold induction at 10 µM under setting [15] came to 2.51. For the same compound, under setting [5], the fold induction at 10 µM is above 1.5. The fold induction at 10 µM under setting [16] was 2.51. For the same compound, under setting [17], the fold induction at 10 µM stood at 1.63. The fold induction at 10 µM under setting [6] came out at 89.5. Under setting [7], the fold induction at 10 µM came to 5. The fold induction at 10 µM under setting [8] was 2.51. Besides, the fold induction at 10 µM under setting [9] came out at 1.63. Further, the fold induction at 10 µM under setting [10] turned out to be 89.5. In addition, the fold induction at 10 µM under setting [11] came out at 5. Also, the “F = Potential NRF2 Activation” value (summary score) turned out to be 2.
As for `CCc1ccc(Oc2nc3ccccn3c(=O)c2/C=C(\C#N)C(=O)NCc2ccco2)cc1` [Gr-5B], the “Potential NRF2 Activation (>=2 target genes induced, by >=1.5-fold)” value is recorded as “YES”. Moreover, where the note is “2-point score”, the “F = Potential NRF2 Activation” value was 2. Further, the fold induction at 10 µM under setting [13] was 1.27. Besides, the fold induction at 10 µM under setting [1] worked out at 1.73. Further, the fold induction at 10 µM under setting [2] was 1.94. Under setting [3], the fold induction at 10 µM came out at 1.73. In addition, the fold induction at 10 µM under setting [14] was 1.27. Under setting [4], the fold induction at 10 µM came out at 1.94. The fold induction at 10 µM under setting [5] was above 1.5. The fold induction at 10 µM under setting [17] worked out at 1.27. Further, the fold induction at 10 µM under setting [6] came out at 1.73. For the same compound, the fold induction at 10 µM under setting [7] was 1.94. Besides, the fold induction at 10 µM under setting [8] was 1.15. The fold induction at 10 µM under setting [9] was 1.27. For the same compound, the fold induction at 10 µM under setting [10] turned out to be 1.73. Also, the fold induction at 10 µM under setting [11] was determined as 1.94. Also, the “F = Potential NRF2 Activation” value (summary score) amounted to 2.
`CNC(=O)/C(C#N)=C/c1c(Oc2ccc(C(C)(C)C)cc2)nc2ccccn2c1=O` [Gr-5D]: the “Potential NRF2 Activation (>=2 target genes induced, by >=1.5-fold)” value was “YES”. The “TXNIP expression, normalized fold change (printed in the column of NRF2-regulated genes)” value (10 μM, 24 hrs, WI-38 cells, qPCR, normalized to B2M, n = 4) was “TXNIP 0.67, fold”. Besides, the “F = Potential NRF2 Activation” value (2-point score) is on record as 2. In addition, for the setting “Assay 12(o), at 10 uM, qPCR”, the “Induction of NRF2-regulated genes: TXNIP normalized fold-change” value is recorded as “TXNIP 0.67, fold-change”. For the same compound, under setting [1], the fold induction at 10 µM worked out at 2.49. For the same compound, the fold induction at 10 µM under setting [2] was 1.78. Moreover, the fold induction at 10 µM under setting [3] was determined as 2.49. Besides, under setting [4], the fold induction at 10 µM was determined as 1.78. In addition, the fold induction at 10 µM under setting [5] is above 1.5. Further, the fold induction at 10 µM under setting [6] stood at 2.49. In addition, the fold induction at 10 µM under setting [7] came to 1.78. The fold induction at 10 µM under setting [8] turned out to be 0.886. Besides, the fold induction at 10 µM under setting [9] was determined as 1.17. In addition, the fold induction at 10 µM under setting [10] came to 2.49. Further, the fold induction at 10 µM under setting [11] worked out at 1.78. For the setting “fold change, WI-38 cells, 10 μM, 24 hrs”, the “Summary of effects on NRF2-regulated genes: TXNIP” value was 0.67,. Further, the “F = Potential NRF2 Activation” value (summary score) is given as 2.
Consider `O=C(/C=C/c1cn(-c2ccccc2)nc1-c1cccnc1)c1ccccc1` [Gr-6B], for which the “Potential NRF2 Activation (>=2 target genes induced, by >=1.5-fold)” value is listed as “YES”. Also, the “F = Potential NRF2 Activation” value (2-point score) turned out to be 2. The fold induction at 10 µM under setting [1] was determined as 1.88. Besides, the fold induction at 10 µM under setting [2] was determined as 1.52. Further, under setting [3], the fold induction at 10 µM came out at 1.88. Besides, the fold induction at 10 µM under setting [4] was 1.52. In addition, the fold induction at 10 µM under setting [5] was above 1.5. For the same compound, the fold induction at 10 µM under setting [6] is 1.88. For the same compound, the fold induction at 10 µM under setting [7] worked out at 1.52. Further, the fold induction at 10 µM under setting [8] worked out at 0.797. The fold induction at 10 µM under setting [9] was 1.22. Moreover, the fold induction at 10 µM under setting [10] stood at 1.88. Under setting [11], the fold induction at 10 µM came to 1.52. The “F = Potential NRF2 Activation” value (summary score) was found to be 2.
Turning to `N=C1S/C(=C\c2cn(-c3ccccc3)nc2-c2cccs2)C(=O)N1c1nccs1` [Gr-6C], the “F = Potential NRF2 Activation” value runs as follows: (2-point score) 0; (summary score) 0. In addition, the fold induction at 10 µM came to 0.33 under setting [12]; 2.09 under setting [1]; 2.09 under setting [3]; 0.33 under setting [15]; 0.33 under setting [16]; 2.09 under setting [6]. The fold induction at 10 µM was 0.331 under setting [8], 0.914 under setting [9], 2.09 under setting [10] and 0.87 under setting [11].
`O=C1NCCCc2cc(Cl)sc21` [O1]: the “F = Potential NRF2 Activation” value was 0 (2-point score) and 0 (summary score). Besides, the fold induction at 10 µM reads like this: under setting [8], 1.21; under setting [9], 1.09; under setting [10], 1.25; under setting [11], 1.08.
On to `O=C(Nc1nc(C23CC4CC(CC(C4)C2)C3)cs1)C(c1ccccc1)c1ccccc1` [O10], for which the “F = Potential NRF2 Activation” value is, setting by setting: (2-point score) 0; (summary score) 0. Moreover, the fold induction at 10 µM is, setting by setting: under setting [8], 0.933; under setting [9], 1.03; under setting [10], 0.755; under setting [11], 0.937.
Turning to `COC(=O)CCc1sc2c(c1[N+](=O)[O-])NC(=O)CCC2` [O20], the “Potential NRF2 Activation (>=2 target genes induced, by >=1.5-fold)” value was “YES”. Moreover, the “F = Potential NRF2 Activation” value (2-point score) was found to be 2. Moreover, the fold induction at 10 µM under setting [12] amounted to 1.76. Moreover, the fold induction at 10 µM under setting [2] amounted to 2.49. Besides, the fold induction at 10 µM under setting [4] was 2.49. In addition, the fold induction at 10 µM under setting [15] came to 1.76. In addition, the fold induction at 10 µM under setting [5] is above 1.5. Further, the fold induction at 10 µM under setting [16] was determined as 1.76. For the same compound, the fold induction at 10 µM under setting [7] stood at 2.49. Moreover, the fold induction at 10 µM under setting [8] is 1.76. Moreover, the fold induction at 10 µM under setting [9] amounted to 1.36. The fold induction at 10 µM under setting [10] amounted to 0.937. Moreover, the fold induction at 10 µM under setting [11] was determined as 2.49. Besides, the “F = Potential NRF2 Activation” value (summary score) was 2.
Regarding `COc1ccc(/C=C2\SC(=N)N(c3nccs3)C2=O)cc1` [O21], the “F = Potential NRF2 Activation” value (2-point score) turned out to be 0 and the “F = Potential NRF2 Activation” value (summary score) came out at 0. Also, the fold induction at 10 µM is, setting by setting: under setting [12], 0.51; under setting [13], 1.25; under setting [1], 3.02; under setting [3], 3.02; under setting [14], 1.25; under setting [15], 0.51. The fold induction at 10 µM runs as follows: under setting [16], 0.51; under setting [17], 1.25; under setting [6], 3.02; under setting [8], 0.512; under setting [9], 1.25; under setting [10], 3.02. Besides, the fold induction at 10 µM under setting [11] amounted to 0.836.
